For experiment [1], the system named is Sprague–Dawley (SD) rats. Description: Sucrose loading test, postprandial blood glucose in SD rats. The format is in vivo, rat. The settings on record: sucrose 2.0 g/kg oral, extracts 0.5 g/kg, Acarbose 5.0 mg/kg, mean ± S.D., n = 5. From the text:
(§1) All animal procedures were approved by the Institutional Animal Care and Use Com-[…]) of […] University (Approval number: HNU2016-0015-1). This study is reported in accordance with ARRIVE guidelines (https://arriveguidelines.org). Four-week-old male Sprague-Dawley (SD) rats were purchased from Joongang Experimental Animal Co. (Seoul, Korea) and fed with a standard diet (Samyang Diet Co., Seoul, Korea) and with water ad libitum for one week. Effect on hyperglycemia-induced by carbohydrate loads in Sprague-Dawley (SD) rats was determined by the inhibitory action of coffee extracts on postprandial hyperglycemia as described in [30]. […] In the case of the administration group, administration samples were prepared by mixing starch or sugar with coffee extracts by dose in advance were orally administrated using a zonde injection needle. […] The glucose level in blood was determined by the glucose oxidase method and compared with that of the control group. The parameters for blood glucose levels will be calculated Maximum observed peak blood glucose level (Cmax) and the time at which it is observed (Tmax) were determined based on the observed data. […] In addition, statistical significances in the animal study were determined by Student's t-test (*p < 0.05; **p < 0.01; and *** p < 0.001). […]

For experiment [2], the target named is rat intestinal α-glucosidase. Description: Rat small intestinal α-glucosidase inhibition assay (pNPG substrate). In kind it is biochemical. Here is the method: In order to investigate the inhibitory effect of coffee extracts on the absorption of glucose, rat intestinal α-glucosidase inhibitory activity was determined using the substrate p-nitrophenyl-α-D-glucopyranoside (pNPG) according to [28] with a slight modification. A total of 0.6 g of rat-intestinal acetone powder was suspended in 9 mL of 0.1 M sodium phosphate buffer 0.9%, and the suspension was sonicated for 12 times 30 s at 4 °C. It was then centrifuged (13,000 × g, 30 min, 4 °C), and the resulting supernatant was used for the assay. […] Absorbance was measured at 405 nm and compared to a control that had 50 μL of buffer solution in place of the extract by Micro-Plate Reader (SpectraMAx® i3, Molecular devices LLC., Wals, Austria). The rat α-glucosidase inhibitory activity was expressed as percent inhibition and was calculated as follows: Inhibition%=ΔAControl405-ΔAExtract405/ΔAControl405×100
All data are presented as mean ± S.D. Statistical analyses were carried out using the statistical packages SPSS 11 (Statistical Package for Social Science 11, SPSS Inc., Chicago, IL, USA) program and the significance of each group was verified with the analyses of one-way ANOVA followed by Duncan’s test of p < 0.05. In addition, statistical significances in the animal study were determined by Student’s t-test (*p < 0.05; **p < 0.01; and *** p < 0.001). […]

Experiment [3] concerns Sprague–Dawley (SD) rats. In words: Starch loading test, postprandial blood glucose in SD rats. The format is in vivo, rat. The settings on record: extracts 0.5 g/kg.
Description: as §1

The structures appear in SMILES notation.

Take `C[C@H]1O[C@H](O[C@H]2[C@H](O)[C@@H](O)[C@@H](O[C@H]3[C@H](O)[C@@H](O)C(O)O[C@@H]3CO)O[C@@H]2CO)[C@H](O)[C@@H](O)[C@@H]1N[C@H]1C=C(CO)[C@@H](O)[C@H](O)[C@H]1O` (some centres unmarked) [Acarbose, acarbose]: the “AUCt (blood glucose-time curve)” value is 376.2 ± 17.2^*** hr·mg/dL in experiment [1] and 389.0 ± 36.8^*** hr·mg/dL in experiment [3] (starch 2.0 g/kg oral, Acarbose 5.0 mg/kg, mean ± S.D., n = 5). Also, the “IC50 rat intestinal α-glucosidase” value in experiment [2] (Ethanol extract row) and in experiment [2] (Water extract row) was < 500 µg/mL in each case. Also, the “blood glucose level after starch loading compared to control” value in experiment [3] (starch 2.0 g/kg, Acarbose 5 mg/kg oral) is “significantly higher blood lowering than all the coffee types and the controls”.

(Values after PMC9508756, “Selected coffee (Coffea arabica L.) extracts inhibit intestinal α-glucosidases activities in-vitro and postprandial hyperglycemia in SD Rats” (BMC Complementary Medicine and Therapies, 2022).)
